Experimental data from US9833497B2, “Human originated EGF domain proteins and use of the same” (CHENGDU SOURCEBIO LIMITED-LIABILITY COMPANY, priority 2013, dated 2017).

Experiments:
Assay type in all cases: cell-based
Citrobacter diversus = experiment: MIC against Gram-negative bacteria: Citrobacter diversus; settings: C. diversus; 10 h cultivation at 37° C.
Summary of the method: (§1)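 Growth inhibition by human EGF domain proteins was scored in LB liquid culture seeded at 5×10^5 CFU/mL. Protein was applied as a two-fold dilution series in triplicate, with shaking incubation at 37° C; MIC is the lowest concentration giving no growth.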

Aeromonas hydrophila = experiment: MIC against Gram-negative bacteria: Aeromonas hydrophila; settings: A. hydrophila; 10 h cultivation at 37° C.
Summary of the method: as §1

Enterobacter cloacae = experiment: MIC against Gram-negative bacteria: Enterobacter cloacae; settings: E. cloacae; 10 h cultivation at 37° C.
Summary of the method: as §1

Serratia marcescens = experiment: MIC against Gram-negative bacteria: Serratia marcescens; settings: S. marcescens; 10 h cultivation at 37° C.
Summary of the method: as §1

Proteus mirabilis = experiment: MIC against Gram-negative bacteria: Proteus mirabilis; settings: P. mirabilis; 10 h cultivation at 37° C.
Summary of the method: as §1

E. coli BL21 = experiment: MIC against Gram-negative bacteria: E. coli BL21; settings: E. coli BL21; 10 h cultivation at 37° C.
Summary of the method: as §1

Proteus vulgaris = experiment: MIC against Gram-negative bacteria: Proteus vulgaris; settings: P. vulgaris; 10 h cultivation at 37° C.
Summary of the method: as §1

Pseudomonas aeruginosa = experiment: MIC against Gram-negative bacteria: Pseudomonas aeruginosa; settings: P. aeruginosa; 10 h cultivation at 37° C.
Summary of the method: as §1

Moraxella catarrhalis = experiment: MIC against Gram-negative bacteria: Moraxella catarrhalis; settings: M. catarrhalis; 10 h cultivation at 37° C.
Summary of the method: as §1

Klebsiella pneumonia = experiment: MIC against Gram-negative bacteria: Klebsiella pneumonia; settings: K. pneumonia; 10 h cultivation at 37° C.
Summary of the method: as §1

E. coli DH5α = experiment: Antibacterial activity: MIC and growth curve against E. coli DH5α in 96-well plate; settings: minimal inhibitory concentration against E. coli DH5α; 96-well plate, 5×10^5 CFU/mL, 37° C., judged after 8 h
Summary of the method: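 Log-phase DH5α (OD600 about 0.5, 37° C, 185 rpm in LB) was pelleted, resuspended in fresh LB and seeded at 5×10^5 CFU/mL with recombinant protein at 50, 25 and 12.5 μg/mL (two-fold series), in triplicate. Plates were shaken at 175 rpm, 37° C, and OD600 was read every 30 min. MIC was the lowest concentration with no growth.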

## PRT1000 (ELGGCISAPCAHGGTCYPQPSGYNCTCPTGYTGPTCS; listed as Homo sapiens)
Citrobacter diversus
  MIC: 50 µg/mL
Aeromonas hydrophila
  MIC: 25 µg/mL
Enterobacter cloacae
  MIC: 12.5 µg/mL
Serratia marcescens
  MIC: 50 µg/mL
Proteus mirabilis
  MIC: 12.5 µg/mL
E. coli BL21
  MIC: 12.5 µg/mL
Proteus vulgaris
  MIC: 25 µg/mL
Pseudomonas aeruginosa
  MIC: 50 µg/mL
Moraxella catarrhalis
  MIC: 25 µg/mL
Klebsiella pneumonia
  MIC: 25 µg/mL
E. coli DH5α
  MIC: 50 µg/mL

## PRT1001 (EMTACHSGPCLNGGSCNPSPGGYYCTCPPSHTGPQCQ; listed as Homo sapiens)
Citrobacter diversus
  MIC: 50 µg/mL
Aeromonas hydrophila
  MIC: 12.5 µg/mL
Enterobacter cloacae
  MIC: 25 µg/mL
Serratia marcescens
  MIC: 50 µg/mL
Proteus mirabilis
  MIC: 12.5 µg/mL
E. coli BL21
  MIC: 50 µg/mL
Proteus vulgaris
  MIC: 25 µg/mL
Pseudomonas aeruginosa
  MIC: 12.5 µg/mL
Moraxella catarrhalis
  MIC: 25 µg/mL
Klebsiella pneumonia
  MIC: 50 µg/mL
E. coli DH5α
  MIC: 12.5 µg/mL

## PRT1002 (FPDPCQNAQLCQNGGSCQALLPAPLGLPSSPSPLTPSFLCTCLPGFTGERCQ; listed as Homo sapiens)
Citrobacter diversus
  MIC: 25 µg/mL
Aeromonas hydrophila
  MIC: 50 µg/mL
Enterobacter cloacae
  MIC: 12.5 µg/mL
Serratia marcescens
  MIC: 12.5 µg/mL
Proteus mirabilis
  MIC: 25 µg/mL
E. coli BL21
  MIC: 12.5 µg/mL
Proteus vulgaris
  MIC: 50 µg/mL
Pseudomonas aeruginosa
  MIC: 25 µg/mL
Moraxella catarrhalis
  MIC: 12.5 µg/mL
Klebsiella pneumonia
  MIC: 50 µg/mL
E. coli DH5α
  MIC: 25 µg/mL

## PRT1003 (STDYCVSAPCFNGGTCVNRPGTFSCLCAMGFQGPRCE; listed as Homo sapiens)
Citrobacter diversus
  MIC: 12.5 µg/mL
Aeromonas hydrophila
  MIC: 25 µg/mL
Enterobacter cloacae
  MIC: 25 µg/mL
Serratia marcescens
  MIC: 12.5 µg/mL
Proteus mirabilis
  MIC: 50 µg/mL
E. coli BL21
  MIC: 12.5 µg/mL
Proteus vulgaris
  MIC: 25 µg/mL
Pseudomonas aeruginosa
  MIC: 25 µg/mL
Moraxella catarrhalis
  MIC: 25 µg/mL
Klebsiella pneumonia
  MIC: 50 µg/mL
E. coli DH5α
  MIC: 50 µg/mL

## PRT1004 (LRPSCADSPCRNRATCQDSPQGPRCLCPTGYTGGSCQ; listed as Homo sapiens)
Citrobacter diversus
  MIC: 12.5 µg/mL
Aeromonas hydrophila
  MIC: 25 µg/mL
Enterobacter cloacae
  MIC: 50 µg/mL
Serratia marcescens
  MIC: 12.5 µg/mL
Proteus mirabilis
  MIC: 50 µg/mL
E. coli BL21
  MIC: 100 µg/mL
Proteus vulgaris
  MIC: 25 µg/mL
Pseudomonas aeruginosa
  MIC: 50 µg/mL
Moraxella catarrhalis
  MIC: 25 µg/mL
Klebsiella pneumonia
  MIC: 12.5 µg/mL
E. coli DH5α
  MIC: 50 µg/mL

## PRT1005 (LMDLCAQKPCPRNSHCLQTGPSFHCLCLQGWTGPLCN; listed as Homo sapiens)
Citrobacter diversus
  MIC: 25 µg/mL
Aeromonas hydrophila
  MIC: 50 µg/mL
Enterobacter cloacae
  MIC: 25 µg/mL
Serratia marcescens
  MIC: 25 µg/mL
Proteus mirabilis
  MIC: 25 µg/mL
E. coli BL21
  MIC: 12.5 µg/mL
Proteus vulgaris
  MIC: 50 µg/mL
Pseudomonas aeruginosa
  MIC: 50 µg/mL
Moraxella catarrhalis
  MIC: 12.5 µg/mL
Klebsiella pneumonia
  MIC: 12.5 µg/mL
E. coli DH5α
  MIC: 50 µg/mL

## PRT1006 (PLSSCQKAALSQGIDVSSLCHNGGLCVDSGPSYFCHCPPGFQGSLCQ; listed as Homo sapiens)
Citrobacter diversus
  MIC: 25 µg/mL
Aeromonas hydrophila
  MIC: 50 µg/mL
Enterobacter cloacae
  MIC: 12.5 µg/mL
Serratia marcescens
  MIC: 25 µg/mL
Proteus mirabilis
  MIC: 25 µg/mL
E. coli BL21
  MIC: 50 µg/mL
Proteus vulgaris
  MIC: 50 µg/mL
Pseudomonas aeruginosa
  MIC: 12.5 µg/mL
Moraxella catarrhalis
  MIC: 12.5 µg/mL
Klebsiella pneumonia
  MIC: 50 µg/mL
E. coli DH5α
  MIC: 12.5 µg/mL

## PRT1007 (HVNPCESRPCQNGATCMAQPSGYLCQCAPGYDGQNCS; listed as Homo sapiens)
Citrobacter diversus
  MIC: 12.5 µg/mL
Aeromonas hydrophila
  MIC: 50 µg/mL
Enterobacter cloacae
  MIC: 12.5 µg/mL
Serratia marcescens
  MIC: 25 µg/mL
Proteus mirabilis
  MIC: 25 µg/mL
E. coli BL21
  MIC: 12.5 µg/mL
Proteus vulgaris
  MIC: 12.5 µg/mL
Pseudomonas aeruginosa
  MIC: 25 µg/mL
Moraxella catarrhalis
  MIC: 50 µg/mL
Klebsiella pneumonia
  MIC: 50 µg/mL
E. coli DH5α
  MIC: 25 µg/mL

## PRT1008 (ELDACQSQPCHNHGTCTPKPGGFHCACPPGFVGLRCE; listed as Homo sapiens)
Citrobacter diversus
  MIC: 50 µg/mL
Aeromonas hydrophila
  MIC: 12.5 µg/mL
Enterobacter cloacae
  MIC: 50 µg/mL
Serratia marcescens
  MIC: 25 µg/mL
Proteus mirabilis
  MIC: 25 µg/mL
E. coli BL21
  MIC: 12.5 µg/mL
Proteus vulgaris
  MIC: 50 µg/mL
Pseudomonas aeruginosa
  MIC: 12.5 µg/mL
Moraxella catarrhalis
  MIC: 12.5 µg/mL
Klebsiella pneumonia
  MIC: 12.5 µg/mL
E. coli DH5α
  MIC: 50 µg/mL
